Experimental data published in patent US20220363686A1 (AiCuris GmbH & Co. KG, priority 2018, published 2022).
pEC50, pIC50: −log10 of the molar value. Like-named read-outs stand apart in the source and are kept apart here.

How the values were obtained:
[1] = system: HBV; assay: Determination of HBV DNA from the supernatants of HepAD38 cells (anti-HBV activity); type: cell-based, hepatitis B virus; conditions: HBV DNA in HepAD38 supernatant, day 6, qPCR, read-out: Cell Activity
How it was run: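 EC50 derived by non-linear regression of relative HBV DNA copy numbers, measured by qPCR (plasmid standards) in day-6 filtered supernatants. Before this, HepAD38 cells were exposed to serial half-log compound dilutions without tetracycline, releasing viral expression; cultures kept at 37 °C, 5% CO2.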

[2] = system: HepAD38 cells; assay: Cell viability assay (AlamarBlue); conditions: 0.3 μg/ml tetracycline, six days incubation, AlamarBlue
[3] = target: HBV core protein (C-terminal truncated core protein containing 149 amino acids of the N-terminal assembly domain) (UniProt P03146); assay: Biochemical capsid assembly assay (fluorescence quenching); design: rows headed: Assembly Activity; other: BODIPY-FL labelled core protein, assembly started with NaCl, read after 6 min; conditions: read-out: Assembly Activity; BODIPY-FL labelled core protein, assembly started with NaCl, read after 6 min
HBV core protein (C-terminal truncated core protein containing 149 amino acids of the N-terminal assembly domain), sequence (P03146 whole entry, the tested form may be a part): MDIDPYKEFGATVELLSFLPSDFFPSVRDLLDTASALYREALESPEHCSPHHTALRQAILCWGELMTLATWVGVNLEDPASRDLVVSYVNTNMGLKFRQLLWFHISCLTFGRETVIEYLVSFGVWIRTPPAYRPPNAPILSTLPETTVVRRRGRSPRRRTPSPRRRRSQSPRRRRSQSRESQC
How it was run: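 N-terminal assembly domain (residues 1–149) plus C-terminal Cys150, E. coli-expressed, BODIPY-FL-maleimide labelled, used at 1.0–2.0 μM in 50 mM HEPES pH 7.5 with 0.5% DMSO. Assembly started with NaCl ([…]); fluorescence quenching (ex 477/em 525 nm) read after 6 min. 8-point compound series; EC50 by non-linear regression.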

[4] = Cell viability assay (AlamarBlue); conditions: human, HepAD38 cells
[5] = Hepatitis B virus, HePAD38, 144 h

Question: With `COCC1(N(C)C(=O)c2cnn3c2CN(C(=O)c2cc4ccccc4[nH]2)C(C)C3)CC1` (single isomer, unassigned) [Example 70, 5-(1H-indole-2-carbonyl)-N-[1-(methoxymethyl)cyclopropyl]-N,6-dimethyl-4H,5H,6H,7H-pyrazolo[1,5-a]pyrazine-3-carboxamide] as the molecule, how does the pEC50 [1] read?
Answer: > 6.00

Question: And the CC50 [2]?
Answer: > 10 µM

Question: What about the pIC50 [3] of the same molecule?
Answer: > 5.30

Question: With `CC1Cn2ncc(C(=O)N(C)C3CC3)c2CN1C(=O)c1cc2ccccc2[nH]1` (single isomer, unassigned) [Example 71, N-cyclopropyl-5-(1H-indole-2-carbonyl)-N,6-dimethyl-4H,5H,6H,7H-pyrazolo[1,5-a]pyrazine-3-carboxamide] as the molecule, how does the pEC50 [1] read?
Answer: > 6.00

Question: What about the CC50 [2] of the same molecule?
Answer: > 10 µM

Question: What about the pIC50 [3] of the same molecule?
Answer: > 5.30

Question: What does the source list for `CC1Cn2ncc(C(=O)NC3(COC(F)F)CC3)c2CN1C(=O)c1cc2ccccc2[nH]1` (single isomer, unassigned) [Example 132, N-{1-[(difluoromethoxy)methyl]cyclopropyl}-5-(1H-indole-2-carbonyl)-6-methyl-4H,5H,6H,7H-pyrazolo[1,5-a]pyrazine-3-carboxamide]?
Answer: pEC50 [1]: > 6.00; CC50 [2]: > 10 µM; pIC50 [3]: > 5.30

Question: With `CN(C(=O)c1cnn2c1CN(C(=O)c1cc3ccccc3[nH]1)CC2)C1(CCOC(F)F)CCCC1` [Example 127, N-{1-[2-(difluoromethoxy)ethyl]cyclopentyl}-5-(1H-indole-2-carbonyl)-N-methyl-4H,5H,6H,7H-pyrazolo[1,5-a]pyrazine-3-carboxamide] as the molecule, how does the pEC50 [1, 5] read?
Answer: 5.00 to 6.00

Question: What about the CC50 at 6 days [4] of the same molecule?
Answer: > 10 µM

Question: What about the pIC50 [3] of the same molecule?
Answer: > 5.30

Question: With `CN(C(=O)c1cnn2c1CN(C(=O)c1cc3ccccc3[nH]1)CC2)C1(CCOC(F)F)CCOCC1` [Example 128] as the molecule, how does the pEC50 [1, 5] read?
Answer: 5.00 to 6.00

Question: And the CC50 at 6 days [4]?
Answer: > 10 µM

Question: And the pIC50 [3]?
Answer: > 5.30

Question: With `CN(CCO)C(=O)c1cnn2c1CN(C(=O)c1cc3c(F)cc(F)cc3[nH]1)CC2` [Example 129, 5-(4,6-difluoro-1H-indole-2-carbonyl)-N-(2-hydroxyethyl)-N-methyl-4H,5H,6H,7H-pyrazolo[1,5-a]pyrazine-3-carboxamide] as the molecule, how does the pEC50 [1, 5] read?
Answer: > 6.00

Question: What about the CC50 at 6 days [4] of the same molecule?
Answer: > 10 µM

Question: What about the pIC50 [3] of the same molecule?
Answer: > 5.30

Question: With `CN(C(=O)c1cnn2c1CN(C(=O)c1cc3ccccc3[nH]1)CC2)C1CCC1` [Example 133, N-cyclobutyl-5-(1H-indole-2-carbonyl)-N-methyl-4H,5H,6H,7H-pyrazolo[1,5-a]pyrazine-3-carboxamide] as the molecule, how does the pEC50 [1, 5] read?
Answer: 5.00 to 6.00

Question: And the CC50 at 6 days [4]?
Answer: > 10 µM

Question: What about the pIC50 [3] of the same molecule?
Answer: > 5.30

Question: With `O=C(NC1COC1)c1cnn2c1CN(C(=O)c1cc3ccccc3[nH]1)CC2` [Example 134, 5-(1H-indole-2-carbonyl)-N-(oxetan-3-yl)-4H,5H,6H,7H-pyrazolo[1,5-a]pyrazine-3-carboxamide] as the molecule, how does the pEC50 [1, 5] read?
Answer: 5.00 to 6.00

Question: What about the CC50 at 6 days [4] of the same molecule?
Answer: > 10 µM

Question: And the pIC50 [3]?
Answer: > 5.30

Question: With `CN(C(=O)c1cnn2c1CN(C(=O)c1cc3ccccc3[nH]1)CC2)C1COC1` [Example 135, 5-(1H-indole-2-carbonyl)-N-methyl-N-(oxetan-3-yl)-4H,5H,6H,7H-pyrazolo[1,5-a]pyrazine-3-carboxamide] as the molecule, how does the pEC50 [1, 5] read?
Answer: > 6.00

Question: And the CC50 at 6 days [4]?
Answer: > 10 µM

Question: What about the pIC50 [3] of the same molecule?
Answer: > 5.30

Question: Which results are given for `CN(C(=O)c1cnn2c1CN(C(=O)c1cc3ccccc3[nH]1)CC2)C1(C)COC1` [Example 136, 5-(1H-indole-2-carbonyl)-N-methyl-N-(3-methyloxetan-3-yl)-4H,5H,6H,7H-pyrazolo[1,5-a]pyrazine-3-carboxamide]?
Answer: pEC50 [1, 5]: 5.00 to 6.00; CC50 at 6 days [4]: > 10 µM; pIC50 [3]: > 5.30

Question: With `CN(CC1(O)CCC1)C(=O)c1cnn2c1CN(C(=O)c1cc3ccccc3[nH]1)CC2` [Example 137, N-[(1-hydroxycyclobutyl)methyl]-5-(1H-indole-2-carbonyl)-N-methyl-4H,5H,6H,7H-pyrazolo[1,5-a]pyrazine-3-carboxamide] as the molecule, how does the pEC50 [1, 5] read?
Answer: > 6.00

Question: What about the CC50 at 6 days [4] of the same molecule?
Answer: > 10 µM

Question: And the pIC50 [3]?
Answer: > 5.30

Question: With `CN(C(=O)c1cnn2c1CN(C(=O)c1cc3ccccc3[nH]1)CC2)C1(C2OCCO2)CC1` [Example 138, N-[1-(1,3-dioxolan-2-yl)cyclopropyl]-5-(1H-indole-2-carbonyl)-N-methyl-4H,5H,6H,7H-pyrazolo[1,5-a]pyrazine-3-carboxamide] as the molecule, how does the pEC50 [1, 5] read?
Answer: > 6.00

Question: What about the CC50 at 6 days [4] of the same molecule?
Answer: > 10 µM

Question: What about the pIC50 [3] of the same molecule?
Answer: > 5.30

Question: With `O=C(NC1(COC(F)F)CC1)c1cnn2c1CN(C(=O)c1cc3cc(F)c(F)cc3[nH]1)CC2` [Example 139, 5-(5,6-difluoro-1H-indole-2-carbonyl)-N-{1-[(difluoromethoxy)methyl]cyclopropyl}-4H,5H,6H,7H-pyrazolo[1,5-a]pyrazine-3-carboxamide] as the molecule, how does the pEC50 [1, 5] read?
Answer: > 6.00

Question: What about the CC50 at 6 days [4] of the same molecule?
Answer: > 10 µM

Question: What about the pIC50 [3] of the same molecule?
Answer: > 5.30

Question: With `CN(C(=O)c1cnn2c1CN(C(=O)c1cc3ccccc3[nH]1)CC2)C1([C@H]2OC[C@H](N)CO2)CC1` [Example 141, 5-(1H-indole-2-carbonyl)-N-methyl-N-{1-[(2r,5r)-5-amino-1,3-dioxan-2-yl]cyclopropyl}-4H,5H,6H,7H-pyrazolo[1,5-a]pyrazine-3-carboxamide] as the molecule, how does the pEC50 [1, 5] read?
Answer: > 6.00

Question: And the CC50 at 6 days [4]?
Answer: > 10 µM

Question: And the pIC50 [3]?
Answer: > 5.30

Question: Which results are given for `CC1Cn2ncc(C(=O)N[C@H](C)C(F)(F)F)c2CN1C(=O)c1cc2ccccc2[nH]1` (stereo partly drawn) [Example 142, 5-(1H-indole-2-carbonyl)-6-methyl-N-[(2R)-1,1,1-trifluoropropan-2-yl]-4H,5H,6H,7H-pyrazolo[1,5-a]pyrazine-3-carboxamide]?
Answer: pEC50 [1, 5]: > 6.00; CC50 at 6 days [4]: > 10 µM; pIC50 [3]: > 5.30

Question: With `CC1Cn2ncc(C(=O)N[C@H](C)C(F)(F)F)c2CN1C(=O)c1cc2c(F)c(F)ccc2[nH]1` (stereo partly drawn) [Example 143, 5-(4,5-difluoro-1H-indole-2-carbonyl)-6-methyl-N-[(2R)-1,1,1-trifluoropropan-2-yl]-4H,5H,6H,7H-pyrazolo[1,5-a]pyrazine-3-carboxamide] as the molecule, how does the pEC50 [1, 5] read?
Answer: > 6.00

Question: And the CC50 at 6 days [4]?
Answer: > 10 µM

Question: And the pIC50 [3]?
Answer: > 5.30

Question: With `Cc1c(F)ccc2[nH]c(C(=O)N3Cc4c(C(=O)N[C@H](C)C(F)(F)F)cnn4CC3C)cc12` (stereo partly drawn) [Example 144, 5-(5-fluoro-4-methyl-1H-indole-2-carbonyl)-6-methyl-N-[(2R)-1,1,1-trifluoropropan-2-yl]-4H,5H,6H,7H-pyrazolo[1,5-a]pyrazine-3-carboxamide] as the molecule, how does the pEC50 [1, 5] read?
Answer: > 6.00

Question: What about the CC50 at 6 days [4] of the same molecule?
Answer: > 10 µM

Question: And the pIC50 [3]?
Answer: > 5.30

Question: With `CC1Cn2ncc(C(=O)N[C@H](C)C(F)(F)F)c2CN1C(=O)c1cc2c(Cl)cccc2[nH]1` (stereo partly drawn) [Example 145, 5-(4-chloro-1H-indole-2-carbonyl)-6-methyl-N-[(2R)-1,1,1-trifluoropropan-2-yl]-4H,5H,6H,7H-pyrazolo[1,5-a]pyrazine-3-carboxamide] as the molecule, how does the pEC50 [1, 5] read?
Answer: > 6.00

Question: And the CC50 at 6 days [4]?
Answer: > 10 µM

Question: What about the pIC50 [3] of the same molecule?
Answer: > 5.30

Question: With `Cc1cc(F)cc2[nH]c(C(=O)N3Cc4c(C(=O)N[C@H](C)C(F)(F)F)cnn4CC3C)cc12` (stereo partly drawn) [Example 146, 5-(6-fluoro-4-methyl-1H-indole-2-carbonyl)-6-methyl-N-[(2R)-1,1,1-trifluoropropan-2-yl]-4H,5H,6H,7H-pyrazolo[1,5-a]pyrazine-3-carboxamide] as the molecule, how does the pEC50 [1, 5] read?
Answer: > 6.00

Question: And the CC50 at 6 days [4]?
Answer: > 10 µM

Question: What about the pIC50 [3] of the same molecule?
Answer: > 5.30

Question: With `CC1Cn2ncc(C(=O)N[C@H](C)C(F)(F)F)c2CN1C(=O)c1cc2cc(F)c(Cl)cc2[nH]1` (stereo partly drawn) [Example 147, 5-(6-chloro-5-fluoro-1H-indole-2-carbonyl)-6-methyl-N-[(2R)-1,1,1-trifluoropropan-2-yl]-4H,5H,6H,7H-pyrazolo[1,5-a]pyrazine-3-carboxamide] as the molecule, how does the pEC50 [1, 5] read?
Answer: > 6.00

Question: And the CC50 at 6 days [4]?
Answer: > 10 µM

Question: And the pIC50 [3]?
Answer: > 5.30

Question: With `O=C(NC1(CCOC(F)F)COC1)c1cnn2c1CN(C(=O)c1cc3ccccc3[nH]1)CC2` [Example 148, N-{3-[2-(difluoromethoxy)ethyl]oxetan-3-yl}-5-(1H-indole-2-carbonyl)-4H,5H,6H,7H-pyrazolo[1,5-a]pyrazine-3-carboxamide] as the molecule, how does the pEC50 [1, 5] read?
Answer: > 6.00

Question: And the CC50 at 6 days [4]?
Answer: > 10 µM

Question: And the pIC50 [3]?
Answer: > 5.30
